How the values were obtained:
[1] = system: rats with occlusion of left coronary artery followed by reperfusion (I/R); test: Echocardiographic evaluation of left atrium and left ventricle in rats after ischemia/reperfusion (I/R); type: in vivo, Male OFA Sprague-dawley rats
Source text: • Figure 1 is a combination of two graphs showing left atrium (LA) area after one month of treatment with DTI Dabigatran (A) or S35792 (B). Vehicle (V) is 60% H2O/40% PEG 300 for dabigatran and saline for S35972. Treatment of rats started just after thoracotomy without (Sham) or with occlusion of left coronary artery followed by reperfusion (I/R). […] Vehicle (V) is 60% H2O/40% PEG 300 for dabigatran and saline for S35972. Treatment of rats started just after thoracotomy without (Sham) or with occlusion of left coronary artery followed by reperfusion (I/R). Results are presented as mean +/- S.E.M. * P<0.05; ** P<0.001, *** P<0.001 vs Sham; #P<0.05 vs untreated I/R. • Figure 3 is a combination of two graphs showing thrombin time (TT), which reflects anticoagulant activity, and plasma concentrations of Dabigatran (A) and S35792 (B) in rats after throracotomy with occlusion of left coronary artery followed by reperfusion (I/R). Vehicle (V) is 60% H2O/40% PEG 300 for dabigatran and saline for S35972. Tests were carried out on blood collected by cardiac puncture at sacrifice (i.e. for Dabigatran, 90 minutes after last oral administration). DTI plasma levels are quantified using LC-MS/MS. TT are expressed as mean +/- S.E.M with reference to the mean value of sham animals that underwent thoracotomy only. *** P<0.001 vs untreated I/R. • Figure 4 is a combination of three graphs showing left atrium (LA) area (A) and diameter (B) and left ventricle end-diastolic (LVED) diameter (C) after two months of treatment with S35972. Treatment of rats started just after thoracotomy without (Sham) or with occlusion of left coronary artery followed by reperfusion (I/R). LA area was measured by bidimensional echocardiography. LA and LVED diameters were measured in time-motion mode. Results are presented as mean +/- S.E.M. *P<0.05, **P<0.01 and *** P<0.001 vs Sham; ^#P<0.05 ^###P<0.001 vs untreated I/R. • Figure 5 is a graph showing the impact of S35972 administration during two months on the duration of an episode of AF in rats undergone thoracotomy without (Sham) or with occlusion of left coronary artery followed by reperfusion (I/R). AF duration is measured as the time between the end of the electric stimulation and the return to sinusoidal rhythm. […] Rats undergone thoracotomy without (Sham) or with occlusion of left coronary artery followed by reperfusion (I/R). Expression of mRNA was measured with real-time qPCR. […] Treatment of rats started one month post thoracotomy without (Sham) or with occlusion of left coronary artery followed by reperfusion (I/R). LA area was measured by bidimensional echocardiography. LVED and LA diameters were measured in time-motion mode. […] Rats undergone thoracotomy without (Sham) or with occlusion of left coronary artery followed by reperfusion (I/R). AF duration is measured as the time between the end of the electric stimulation and return to sinusoidal rhythm. Results are presented as mean +/- S.E.M.
Animals were anesthetized with 30 mg/kg sodium pentobarbital, and then intubated and ventilated at 60 respirations/min while body temperature was maintained at 37°C. Rats underwent thoracotomy and their left coronary artery was either left intact (Sham) or occluded with a 4.0 silk suture at 1 mm from the artery origin. Ischemia was maintained for 30 min and the clamp was removed to initiate a definitive reperfusion phase. […]

[2] = Plasma concentration by LC-MS/MS in I/R rats; set-up: species or system Male OFA Sprague-dawley rats; conditions: rat, in vivo, sc
Source text: • Figure 1 is a combination of two graphs showing left atrium (LA) area after one month of treatment with DTI Dabigatran (A) or S35792 (B). Vehicle (V) is 60% H2O/40% PEG 300 for dabigatran and saline for S35972. Treatment of rats started just after thoracotomy without (Sham) or with occlusion of left coronary artery followed by reperfusion (I/R). Results are presented as mean +/- S.E.M, *P<0.05, **P<0.01 and *** P<0.001 vs Sham; ^##P<0.01 and ^###P<0.001 vs untreated I/R. • Figure 2 is a combination of graphs showing left ventricular end-diastolic (LVED) diameter and fractional shortening (FS) after one month of treatment with Dabigatran (A) or S35792 (B). Vehicle (V) is 60% H2O/40% PEG 300 for dabigatran and saline for S35972. Treatment of rats started just after thoracotomy without (Sham) or with occlusion of left coronary artery followed by reperfusion (I/R). Results are presented as mean +/- S.E.M. * P<0.05; ** P<0.001, *** P<0.001 vs Sham; #P<0.05 vs untreated I/R. • Figure 3 is a combination of two graphs showing thrombin time (TT), which reflects anticoagulant activity, and plasma concentrations of Dabigatran (A) and S35792 (B) in rats after throracotomy with occlusion of left coronary artery followed by reperfusion (I/R). Vehicle (V) is 60% H2O/40% PEG 300 for dabigatran and saline for S35972. […] DTI plasma levels are quantified using LC-MS/MS. TT are expressed as mean +/- S.E.M with reference to the mean value of sham animals that underwent thoracotomy only. *** P<0.001 vs untreated I/R. • Figure 4 is a combination of three graphs showing left atrium (LA) area (A) and diameter (B) and left ventricle end-diastolic (LVED) diameter (C) after two months of treatment with S35972. […] LA area was measured by bidimensional echocardiography. LA and LVED diameters were measured in time-motion mode. […] AF duration is measured as the time between the end of the electric stimulation and the return to sinusoidal rhythm. […] Expression of mRNA was measured with real-time qPCR. […] Expression of mRNA was measured with real-time qPCR. […]

blood coagulation = test: Thrombin time (TT) on blood collected by cardiac puncture at sacrifice of I/R rats; type: in vivo, Male OFA Sprague-dawley rats; conditions: subcutaneous osmotic minipump, with reference to the mean value of sham animals
Source text: • Figure 1 is a combination of two graphs showing left atrium (LA) area after one month of treatment with DTI Dabigatran (A) or S35792 (B). Vehicle (V) is 60% H2O/40% PEG 300 for dabigatran and saline for S35972. Treatment of rats started just after thoracotomy without (Sham) or with occlusion of left coronary artery followed by reperfusion (I/R). […] Vehicle (V) is 60% H2O/40% PEG 300 for dabigatran and saline for S35972. Treatment of rats started just after thoracotomy without (Sham) or with occlusion of left coronary artery followed by reperfusion (I/R). Results are presented as mean +/- S.E.M. * P<0.05; ** P<0.001, *** P<0.001 vs Sham; #P<0.05 vs untreated I/R. • Figure 3 is a combination of two graphs showing thrombin time (TT), which reflects anticoagulant activity, and plasma concentrations of Dabigatran (A) and S35792 (B) in rats after throracotomy with occlusion of left coronary artery followed by reperfusion (I/R). Vehicle (V) is 60% H2O/40% PEG 300 for dabigatran and saline for S35972. […] DTI plasma levels are quantified using LC-MS/MS. TT are expressed as mean +/- S.E.M with reference to the mean value of sham animals that underwent thoracotomy only. *** P<0.001 vs untreated I/R. • Figure 4 is a combination of three graphs showing left atrium (LA) area (A) and diameter (B) and left ventricle end-diastolic (LVED) diameter (C) after two months of treatment with S35972. […] LA area was measured by bidimensional echocardiography. LA and LVED diameters were measured in time-motion mode. […] AF duration is measured as the time between the end of the electric stimulation and the return to sinusoidal rhythm. […] Expression of mRNA was measured with real-time qPCR. […] Expression of mRNA was measured with real-time qPCR. […] Expression of mRNA was measured with real-time qPCR. […] LA area was measured by bidimensional echocardiography. LVED and LA diameters were measured in time-motion mode. […] AF duration is measured as the time between the end of the electric stimulation and return to sinusoidal rhythm. […]

[3] = 6 mg/kg/d during one month, treatment started one month after the I/R episode
[4] = 6 mg/kg/day for 8 weeks, started just after I/R
[5] = four weeks post-I/R, one month of treatment started just after I/R

Substance: 4-oxo-3-(2-pyridin-2-ylethylamino)-4,6,7,8-tetrahydro-pyrrolo[1,2-a]pyrazine-6-carboxylic acid 2-ethylcarbamoyl methoxy-benzylamide [S35972]
- left atrium area ([1]; 3 mg/kg/day for 8 weeks, started just after I/R): decreases the left atrium area
- left atrium diameter [1, 3]: decreased to an intermediate value between Sham and I/R rats
- left ventricle end-diastolic diameter [1, 3]: had no effect
- left atrium area ([1]; 6 mg/kg/d during one month, treatment started one month after the I/R episode (established atrial dilatation)): significantly reduced
- atrial diameter [1, 4]: significantly reduces
- left atrium area [1, 4]: decreases the left atrium area
- ventricular diameter (LVED diameter) [1, 4]: significantly reduces
- dilatation of left atrium (left atrium (LA) area) [1, 5]: prevent the dilatation of left atrium
- ventricular diameter (LVED diameter) [1, 5]: do not impact
- ventricular function (fractional shortening) [1, 5]: do not impact
- plasma concentration ([2]; 3 mg/kg/day): 24.1 ± 5.7 ng/mL
- plasma concentration ([2]; 6 mg/kg/day): 57.2 ± 24.4 ng/mL
- thrombin time increases by a factor (blood coagulation; 3 mg/kg/day): 3
- thrombin time increases by a factor (blood coagulation; 6 mg/kg/day): 3
